Columns and labels:
[1] = human gut metagenome, 24 h, 2 µM
[2] = human gut metagenome, 24 h, 2 µM; remark: listed apart in the source
[3] = (§1) The drug is tested on WLS-310 corresponding to human gut metagenome with ENA study accession number: PRJEB37062 and ENA sample accession number: ERS12561785 for biotransformation under anaerobic condition. The drug concentrations were measured over 9 timepoints collected between 0 and 24 hours of incubation by liquid-chromatography-coupled mass spectrometry (LC–MS); details: 2 µM
[4] = as §1, with “Z-030” for “WLS-310”, “mouse” for “human”, “ERS12561829” for “ERS12561785”; details: 2 µM
[5] = as §1, with “Z-012” for “WLS-310”, “to” for “to human gut”, “ERS12561812” for “ERS12561785”; details: 2 µM
[6] = human gut metagenome, 24 h, 2 µM; remark: listed apart in the source
[7] = human gut metagenome, 24 h, 2 µM; remark: listed apart in the source
[8] = human gut metagenome, 24 h, 2 µM; remark: listed apart in the source
[9] = human gut metagenome, 24 h, 2 µM; remark: listed apart in the source
[10] = as §1, with “Z-019” for “WLS-310”, “rat” for “human”, “ERS12561818” for “ERS12561785”; details: 2 µM
[11] = human gut metagenome, 24 h, 2 µM; remark: listed apart in the source
[12] = human gut metagenome, 24 h, 2 µM; remark: listed apart in the source
[13] = as §1, with “WLS-039” for “WLS-310”, “ERS12561746” for “ERS12561785”; details: 2 µM
[14] = human gut metagenome, 24 h, 2 µM; remark: listed apart in the source
[15] = human gut metagenome, 24 h, 2 µM; remark: listed apart in the source
[16] = as §1, with “WLS-090” for “WLS-310”, “ERS12561753” for “ERS12561785”; details: 2 µM
[17] = as §1, with “Z-029” for “WLS-310”, “rat” for “human”, “ERS12561828” for “ERS12561785”; details: 2 µM
[18] = human gut metagenome, 24 h, 2 µM; remark: listed apart in the source
[19] = as §1, with “WLS-069” for “WLS-310”, “ERS12561748” for “ERS12561785”; details: 2 µM
[20] = human gut metagenome, 24 h, 2 µM; remark: listed apart in the source
Further: call rule not given here.

SMILES	Bacterial Biotransformation [1]	Bacterial Biotransformation [2]	Bacterial Biotransformation [3]	Bacterial Biotransformation [4]	Bacterial Biotransformation [5]	Bacterial Biotransformation [6]	Bacterial Biotransformation [7]	Bacterial Biotransformation [8]	Bacterial Biotransformation [9]	Bacterial Biotransformation [10]	Bacterial Biotransformation [11]	Bacterial Biotransformation [12]	Bacterial Biotransformation [13]	Bacterial Biotransformation [14]	Bacterial Biotransformation [15]	Bacterial Biotransformation [16]	Bacterial Biotransformation [17]	Bacterial Biotransformation [18]	Bacterial Biotransformation [19]	Bacterial Biotransformation [20]
CC(=O)OCC(CCn1cnc2cnc(N)nc21)COC(C)=O [FAMCICLOVIR]	Compound metabolized	Compound metabolized	Compound metabolized	Compound NOT metabolized	Compound NOT metabolized	Compound metabolized	Compound NOT metabolized	Compound metabolized	Compound metabolized	Compound NOT metabolized	Compound metabolized	Compound metabolized	Compound metabolized	Compound metabolized	Compound metabolized	Compound metabolized	Compound NOT metabolized	Compound metabolized	Compound metabolized	Compound metabolized
CC1Cc2ccccc2N1NC(=O)c1ccc(Cl)c(S(N)(=O)=O)c1 (stereo not given) [INDAPAMIDE]	Compound NOT metabolized	Compound NOT metabolized	Compound NOT metabolized	Compound NOT metabolized	Compound NOT metabolized	Compound NOT metabolized	Compound NOT metabolized	Compound NOT metabolized	Compound NOT metabolized	Compound NOT metabolized	Compound NOT metabolized	Compound NOT metabolized	Compound NOT metabolized	Compound NOT metabolized	Compound NOT metabolized	Compound NOT metabolized	Compound NOT metabolized	Compound NOT metabolized	Compound NOT metabolized	Compound NOT metabolized
COc1ccc2c(c1)c(CC(=O)O)c(C)n2C(=O)c1ccc(Cl)cc1 [INDOMETHACIN]	Compound metabolized	Compound NOT metabolized	Compound metabolized	Compound NOT metabolized	Compound NOT metabolized	Compound metabolized	Compound NOT metabolized	Compound metabolized	Compound NOT metabolized	Compound NOT metabolized	Compound metabolized	Compound metabolized	Compound metabolized	Compound metabolized	Compound metabolized	Compound metabolized	Compound NOT metabolized	Compound metabolized	Compound metabolized	Compound metabolized
CC(CCc1ccccc1)NCC(O)c1ccc(O)c(C(N)=O)c1 (stereo not given) [LABETALOL]	Compound metabolized	Compound NOT metabolized	Compound NOT metabolized	Compound NOT metabolized	Compound NOT metabolized	Compound NOT metabolized	Compound NOT metabolized	Compound NOT metabolized	Compound NOT metabolized	Compound NOT metabolized	Compound NOT metabolized	Compound NOT metabolized	Compound NOT metabolized	Compound NOT metabolized	Compound NOT metabolized	Compound metabolized	Compound NOT metabolized	Compound NOT metabolized	Compound NOT metabolized	Compound metabolized
Nc1nnc(-c2cccc(Cl)c2Cl)c(N)n1 [LAMOTRIGINE]	Compound NOT metabolized	Compound NOT metabolized	Compound NOT metabolized	Compound NOT metabolized	Compound NOT metabolized	Compound NOT metabolized	Compound metabolized	Compound NOT metabolized	Compound NOT metabolized	Compound NOT metabolized	Compound NOT metabolized	Compound NOT metabolized	Compound NOT metabolized	Compound NOT metabolized	Compound NOT metabolized	Compound metabolized	Compound NOT metabolized	Compound NOT metabolized	Compound NOT metabolized	Compound metabolized
